Test results as given in the supplement of paper PMC5908809.

Assays:
[1] = system: normal NK cells expanded with K562-aAPC; experiment: drug sensitivity score (DSS) (DSS units); higher = more sensitive; extreme values may be limits of the assay; details: 72 h; IL-2 2.5 ng/mL
Description: (§1)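 Drug sensitivity and resistance testing on K562-aAPC-expanded normal NK cells: 5 concentrations (10-fold steps over a 10,000-fold range), 72 h at 37 °C, viability by CellTiter-Glo normalised to DMSO and benzethonium chloride controls; DSS from the fitted curve.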

IMC-1 (IL-2 20 ng/mL) [2] = experiment: as above; details: 72 h
NKL (IL-2 2.5 ng/mL) [3] = experiment: as above; details: 72 h
[4] = system: normal primary NK cells, pool 3 (3 donors) (IL-2 2.5 ng/mL); experiment: as above; details: 72 h
NK-YS (IL-2 2.5 ng/mL) [5] = experiment: as above; details: 72 h
KHYG-1 (IL-2 2.5 ng/mL) [6] = experiment: as above; details: 72 h
DERL-7 (IL-2 2.5 ng/mL) [7] = experiment: as above; details: 72 h
NK-92 (IL-2 2.5 ng/mL) [8] = experiment: as above; details: 72 h
YT (IL-2 2.5 ng/mL) [9] = experiment: as above; details: 72 h
[10] = system: normal primary NK cells, pool 2 (3 donors) (IL-2 2.5 ng/mL); experiment: as above; details: 72 h
KAI3 (IL-2 2.5 ng/mL) [11] = experiment: as above; details: 72 h
[12] = system: normal primary NK cells, pool 1 (3 donors), resting (IL-2 0 ng/mL); experiment: as above; details: 72 h
SNK-6 (IL-2 2.5 ng/mL) [13] = experiment: as above; details: 72 h
[14] = system: normal primary NK cells, pool 1 (3 donors) (IL-2 2.5 ng/mL); experiment: as above; details: 72 h
IMC-1 (IL-2 20 ng/mL) [15] = experiment: percent inhibition of viability; higher = more inhibition; details: 72 h
NKL (IL-2 2.5 ng/mL) [16] = experiment: as above; details: 72 h
[17] = system: normal primary NK cells, pool 3 (3 donors) (IL-2 2.5 ng/mL); experiment: as above; details: 72 h
NK-YS (IL-2 2.5 ng/mL) [18] = experiment: as above; details: 72 h
KHYG-1 (IL-2 2.5 ng/mL) [19] = experiment: as above; details: 72 h
DERL-7 (IL-2 2.5 ng/mL) [20] = experiment: as above; details: 72 h
NK-92 (IL-2 2.5 ng/mL) [21] = experiment: as above; details: 72 h
YT (IL-2 2.5 ng/mL) [22] = experiment: as above; details: 72 h
[23] = system: normal primary NK cells, pool 2 (3 donors) (IL-2 2.5 ng/mL); experiment: as above; details: 72 h
KAI3 (IL-2 2.5 ng/mL) [24] = experiment: as above; details: 72 h
[25] = system: normal primary NK cells, pool 1 (3 donors), resting (IL-2 0 ng/mL); experiment: as above; details: 72 h
SNK-6 (IL-2 2.5 ng/mL) [26] = experiment: as above; details: 72 h
[27] = system: normal primary NK cells, pool 1 (3 donors) (IL-2 2.5 ng/mL); experiment: as above; details: 72 h
[28] = system: normal NK cells expanded with K562-aAPC; experiment: as above; details: 72 h, IL-2 2.5 ng/mL
Description: as §1

Cc1cc(Nc2cc(N3CCN(C)CC3)nc(/C=C/c3ccccc3)n2)n[nH]1 [ENMD-2076] (max concentration tested 10000 nM)
Details	drug sensitivity score
DERL-7 (IL-2 2.5 ng/mL) [7]	15
IMC-1 (IL-2 20 ng/mL) [2]	14.2
KAI3 (IL-2 2.5 ng/mL) [11]	18.1
KHYG-1 (IL-2 2.5 ng/mL) [6]	15.4
NK-92 (IL-2 2.5 ng/mL) [8]	11.8
NK-YS (IL-2 2.5 ng/mL) [5]	15.4
NKL (IL-2 2.5 ng/mL) [3]	14
SNK-6 (IL-2 2.5 ng/mL) [13]	12.2
YT (IL-2 2.5 ng/mL) [9]	10.1
[1]	12.9
[4]	7.76
[10]	9.3
[12]	7.17
[14]	8.98

percent inhibition of viability [%]
Details	1 nM	10 nM	100 nM	1000 nM	10000 nM
DERL-7 (IL-2 2.5 ng/mL) [20]	-3.97	1.55	8.93	73.3	100
IMC-1 (IL-2 20 ng/mL) [15]	5.76	6.97	6.68	69	99.3
KAI3 (IL-2 2.5 ng/mL) [24]	11.4	13.8	24.2	81.2	103
KHYG-1 (IL-2 2.5 ng/mL) [19]	3.13	4.35	5.27	79.3	103
NK-92 (IL-2 2.5 ng/mL) [21]	11.8	8.87	7.47	52.2	100
NK-YS (IL-2 2.5 ng/mL) [18]	4	7.48	10.6	76.2	84.6
NKL (IL-2 2.5 ng/mL) [16]	2.47	5.63	17.7	61.2	96.1
SNK-6 (IL-2 2.5 ng/mL) [26]	5.5	2.27	-27.8	68.5	79.8
YT (IL-2 2.5 ng/mL) [22]	5.28	5.36	3.17	31.5	101
[17]	-2.94	-6.14	-2.82	14.7	96.1
[23]	-1.71	3	0.94	31	89.3
[25]	-0.34	-9.97	-7.43	16.7	80.9
[27]	-3.71	-10.8	-1.53	25	93.9
[28]	2.38	-3.79	7	60.5	99.8
